# Reference: patent US20250127165A1, “USE OF 2-AMINO-3-PHENYLBUTYRIC ACID OR 2,6-DIAMINO-3-METHYLHEXANOIC ACID AS PLANT IMMUNE RESISTANCE INDUCER” (NANJING TIANNONG BIOTECHNOLOGY CO., LTD., priority 2021, published 2025)
# How the values were obtained:
# Assay type in all cases: in vivo
# [1] = system: tea seedlings (Baiye 1); assay: Induced resistance of tea tree to low temperature stress; settings: for PIABS (photosynthetic performance index): after −4° C. for 24 h; for cold injury index (%): −4° C. 24 h, 3 days recovery
# Description: The tea tree tested was cutting seedling of Baiye 1. Tea seedlings with consistent growth were selected and transplanted into plastic pots with a diameter of 18 cm and placed in a greenhouse with a temperature of 25° C. and a humidity of 60%-70% for adaptive growth for about a week for the experiment. The concentrations used in this experiment were 0, 100, 1,000, and 10,000 nM, and 0.02% Tween 20 was added as surfactant, where the spray treatment method was the same as that of Arabidopsis thaliana in Example 1, the duration of low temperature stress was 24 hours, and the temperature was set to −4° C. After the stress was completed, the tea seedlings were removed and after 30 min of dark treatment at room temperature, the chlorophyll fluorescence of the top leaves of the tea seedlings was measured with Plant Efficiency Handy PEA. The tea seedlings were then placed in a greenhouse at 25° C. for 3 days for recovery. Then the condition of cold injury was observed and graded, where the grading standard of cold injury is shown Table 12, the formula for calculating the cold injury index is as follows.
# The concentrations of 2,6-diamino-3-methylhexanoic acid used in the trail were 0, 1, 10, 100, and 1,000 nM, and 0.02% Tween 20 was added as surfactant. The effect of 2,6-diamino-3-methylhexanoic acid to induce the resistance of tea to low-temperature stress was investigated according to the method as described above.
# [2] = system: cotton (Sikang 1); assay: Induced resistance of cotton to salt stress (100 mM NaCl); settings: three days
# Description: The experimental material was “Sikang 1” cotton, which was hydroponic cultured in a 500 mL plastic cup and ½ Hoagland nutrient solution was changed every three days. When the cotton seedling grew until the second true leaf fully unfolded, the leaf surface was sprayed with 2-amino-3-phenylbutyric acid solution. The concentrations used in this experiment were 0, 1, 10, 100, and 1,000 nM, and 0.02% Tween 20 was added as surfactant. The spraying was repeated once every 24 hours for a total of 2 times. On the second day after the treatment, NaCl was added to the ½ Hoagland nutrient solution to a final concentration of 100 mM to perform salt stress treatment. Each treatment was performed in triplicate. After three days of salt stress, rehydration treatment was performed, the salt injury symptoms of cotton were observed, and calculate the salt injury index was calculated. The formula is as follows: […]
# [3] = system: Pseudomonas syringae PstDC3000; assay: Induced resistance of Arabidopsis thaliana to Pseudomonas syringae infection; settings: for disease index / number of bacteria in the leaves, CFU (mg) / number of bacteria in the leaves, CFU/mg: 3 days after inoculation; for decrease of the number of bacteria per milligram of leaves: compared with blank control
# Description: 2-amino-3-phenylbutyric acid was dissolved in sterile water and then gradiently diluted with sterile water into solutions of 100 nM, 1,000 nM, and 10,000 nM, and a blank control was set up, while 0.02% Tween 20 was added as surfactant. The Pseudomonas syringae PstDC3000 was coated on the LB plate and cultured at 28° C. for 48 hours. Single colonies were picked and inoculated into a 50 mL centrifuge tube containing 2 mL of medium, cultured at 28° C. on a shaker at 250 rpm. The change of OD600 value of the bacterial solution was monitored every 1-2 hours until it reached 0.8, and the culture of the bacteria was stopped. 1 mL of the bacterial solution was transferred into a 1.5 mL sterile centrifuge tube and centrifuged at 8,000 rpm for 2 min to collect the precipitate. The supernatant was removed, and the precipitate was washed 3 times with 10 mM magnesium chloride and centrifuged, and finally the PstDC3000 was resuspended in 10 mM magnesium chloride to reach an OD600 value of […] for later use. The Arabidopsis thaliana seeds were soaked in 75% alcohol for 3 min, then washed 4 times with sterile water and planted in a Petri dish containing ½ MS medium. Twelve seeds were planted in each petri dish, and ½ MS petri dishes with seeds were vernalized at 4° C. for 3 d to break dormancy and then placed in a culture room at 22° C. with a light intensity of 100 μE m^−2s^−1 (16 h light/8 h darkness). When the seedlings grew for 2 weeks, the 2-amino-3-phenylbutyric acid solutions at different concentrations were slowly poured into the petri dish until the whole Arabidopsis thaliana seedlings were submerged, and kept for 2-3 minutes, and then the treatment solution was poured out of the petri dish. The treatment was performed once every 24 h for a total of 2 treatments. 24 hours after the second treatment, the PstDC3000 suspension (OD600=0.01) was inoculated onto the leaves of Arabidopsis thaliana by the same submerge method. After inoculation, the petri dish was closed with a medical breathable adhesive tape and placed in the culture room for further culture. After 3 days, the number of bacteria in different treatments was determined and the incidence of Arabidopsis thaliana was observed. The disease index was calculated in the same manner as that in Example 2.
# Grading standard of Disease injury caused by PstDC3000 (per leave): • Grade 0: No diseased patches on the leaves; • Grade 1: The area of diseased spots accounts for 0%-10% of the whole leaf; • Grade 2: The area of diseased spots accounts for 10%-25% of the whole leaf; • Grade 3: The area of diseased spots accounts for 25%-50% of the whole leaf; • Grade 4: The area of diseased spots accounts for 50%-75% of the whole leaf; • Grade 5: The area of diseased spots accounts for 75%-100% of the whole leaf.
Compound,PIABS (photosynthetic performance index) ([1]; 100 nM),cold injury index (%) ([1]; 100 nM),"PIABS (photosynthetic performance index) ([1]; 1,000 nM)","cold injury index (%) ([1]; 1,000 nM)",mortality (%) ([2]; 1 nM),salt injury index (%) ([2]; 1 nM),mortality (%) ([2]; 10 nM),salt injury index (%) ([2]; 10 nM),mortality (%) ([2]; 100 nM),salt injury index (%) ([2]; 100 nM),"mortality (%) ([2]; 1,000 nM)","salt injury index (%) ([2]; 1,000 nM)",decrease of the disease index ([3]; 100 nM),disease index ([3]; 100 nM),decrease of the number of bacteria per milligram of leaves ([3]; 100 nM),"decrease of the disease index ([3]; 1,000 nM)","disease index ([3]; 1,000 nM)","decrease of the number of bacteria per milligram of leaves ([3]; 1,000 nM)","decrease of the disease index ([3]; 10,000 nM)","number of the bacteria per mg leaves ([3]; 10,000 nM)",also measured
"CC(CCCN)C(N)C(=O)O (stereo not shown) [2,6-diamino-3-methylhexanoic acid]",37.41 ± 0.14 b,33%,40.14 ± 0.15 a,26%,46%,53%,40%,49%,27%,42%,23%,36%,50.96%,42.01 ± 1.36 b,73.93%,56.15%,37.57 ± 0.24 c,84.15%,76.82%,1.58×10^5 per mg leaves,"PIABS (photosynthetic performance index) ([1]; 1 nM): 25.53 ± 0.09; cold injury index (%) ([1]; 1 nM): 46%; PIABS (photosynthetic performance index) ([1]; 10 nM): 32.44 ± 1.51 c; cold injury index (%) ([1]; 10 nM): 42%; decrease of cold injury index ([1]; 1,000 nM): 45%; increase of PIABS ([1]; 1,000 nM): 121%; number of bacteria in the leaves, CFU (mg) ([3]; 100 nM): 8.42 × 10^5 CFU (mg); number of bacteria in the leaves, CFU (mg) ([3]; 1,000 nM): 5.12 × 10^5 CFU (mg); number of bacteria in the leaves, CFU (mg) ([3]; 10,000 nM): 1.58 × 10^5 CFU (mg); decrease of the number of bacteria per milligram of leaves ([3]; 10,000 nM): 95.11%"
CC(c1ccccc1)C(N)C(=O)O (stereo not shown) [2-amino-3-phenylbutyric acid],21.83 ± 1.73 bc,66.33%,33.67 ± 3.27 b,45%,49%,66.67%,46%,55%,32%,51%,28%,42%,52.57%,38.04 ± 1.04 b,92.05%,58.45%,33.33 ± 4.17 c,92.94%,81.82%,1.34×10^5 per mg leaves,"decrease of cold injury index ([1]; 10,000 nM): 35%; increase of PIABS ([1]; 10,000 nM): 147%; PIABS (photosynthetic performance index) ([1]; 10,000 nM): 42.36 ± 3.51 a; cold injury index (%) ([1]; 10,000 nM): 40%; number of bacteria in the leaves, CFU/mg ([3]; 100 nM): 2.40 × 10^5 CFU/mg; number of bacteria in the leaves, CFU/mg ([3]; 1,000 nM): 2.13 × 10^5 CFU/mg; number of bacteria in the leaves, CFU/mg ([3]; 10,000 nM): 1.34 × 10^5 CFU/mg; decrease of the number of bacteria per milligram of leaves ([3]; 10,000 nM): 95.56%"
